Test results from ChEMBL document CHEMBL3045618, “Effect of seven new orchard pesticides on Galendromus occidentalis in laboratory studies” (2009).

Experiments:
Galendromus occidentalis [1] = experiment: Toxicity against Metaseiulus occidentalis adults in bean leaf disk infested with two-spotted spider mites assessed as repellency at 0.1167 g AI/L treated using worst-case laboratory exposure procedure measured after 72 hr (reference value: 16.1%); format: functional
Galendromus occidentalis [2] = experiment: Toxicity against Metaseiulus occidentalis adults in bean leaf disk infested with two-spotted spider mites assessed as repellency at 0.1167 g AI/L treated using worst-case laboratory exposure procedure measured after 48 hr (reference value: 13.6%); format: functional
Galendromus occidentalis [3] = experiment: Toxicity against Metaseiulus occidentalis adults in bean leaf disk infested with two-spotted spider mites assessed as repellency at 0.1167 g AI/L treated using worst-case laboratory exposure procedure measured after 24 hr (reference value: 3.6%); format: functional
Galendromus occidentalis [4] = experiment: Toxicity against Metaseiulus occidentalis adults in bean leaf disk infested with two-spotted spider mites assessed as average number of eggs laid (fecundity)at 0.1167 g AI/L treated using worst-case laboratory exposure procedure measured after 72 hr (reference value: 2.23/day); format: functional
Galendromus occidentalis [5] = experiment: Toxicity against Metaseiulus occidentalis adults in bean leaf disk infested with two-spotted spider mites assessed as corrected mortality at 0.1167 g AI/L treated using worst-case laboratory exposure procedure measured after 72 hr; format: functional
Galendromus occidentalis [6] = experiment: Toxicity against Metaseiulus occidentalis adults in bean leaf disk infested with two-spotted spider mites assessed as corrected mortality at 2x0.1167 g AI/L treated using worst-case laboratory exposure procedure measured after 72 hr; format: functional
Galendromus occidentalis [7] = experiment: Toxicity against Metaseiulus occidentalis adults in bean leaf disk infested with two-spotted spider mites assessed as average number of eggs laid (fecundity) at 0.1167 g AI/L treated using worst-case laboratory exposure procedure measured after 48 hr (reference value: 2.30/day); format: functional
Galendromus occidentalis [8] = experiment: Toxicity against Metaseiulus occidentalis adults in bean leaf disk infested with two-spotted spider mites assessed as average number of eggs laid (fecundity) at 0.1167 g AI/L treated using worst-case laboratory exposure procedure measured after 24 hr (reference value: 2.11/day); format: functional
Galendromus occidentalis [9] = experiment: Toxicity against Metaseiulus occidentalis adults in bean leaf disk infested with two-spotted spider mites assessed as corrected mortality at 0.1167/128 g AI/L treated using worst-case laboratory exposure procedure measured after 72 hr; format: functional
Galendromus occidentalis [10] = experiment: Toxicity against Metaseiulus occidentalis adults in bean leaf disk infested with two-spotted spider mites assessed as corrected mortality at 0.1167/46 g AI/L treated using worst-case laboratory exposure procedure measured after 72 hr; format: functional
Galendromus occidentalis [11] = experiment: Toxicity against Metaseiulus occidentalis adults in bean leaf disk infested with two-spotted spider mites assessed as corrected mortality at 0.1167/8 g AI/L treated using worst-case laboratory exposure procedure measured after 72 hr; format: functional
Galendromus occidentalis [12] = experiment: Toxicity against Metaseiulus occidentalis adults in bean leaf disk infested with two-spotted spider mites assessed as corrected mortality at 4x0.1167 g AI/L treated using worst-case laboratory exposure procedure measured after 72 hr; format: functional
Galendromus occidentalis [13] = experiment: Toxicity against Metaseiulus occidentalis adults in bean leaf disk infested with two-spotted spider mites assessed as mortality treated using worst-case laboratory exposure procedure measured after 72 hr; format: functional
Galendromus occidentalis [14] = experiment: Ovicidal activity against Metaseiulus occidentalis eggs in bean leaf disk infested with two-spotted spider mites assessed as corrected cumulative mortality at 700 g/kg WP formulation treated using worst-case laboratory exposure procedure measured after 144 hr (reference value: 0.7%); format: functional
Amblyseius andersoni = experiment: Toxicity against Amblyseius andersoni in hop fields assessed as mortality; format: functional
Galendromus occidentalis [15] = experiment: Toxicity against Metaseiulus occidentalis adults in bean leaf disk infested with two-spotted spider mites assessed as repellency at 0.1600 g AI/L treated using worst-case laboratory exposure procedure measured after 72 hr (reference value: 16.1%); format: functional
Galendromus occidentalis [16] = experiment: Toxicity against Metaseiulus occidentalis adults in bean leaf disk infested with two-spotted spider mites assessed as repellency at 0.1600 g AI/L treated using worst-case laboratory exposure procedure measured after 48 hr (reference value: 13.6%); format: functional
Galendromus occidentalis [17] = experiment: Toxicity against Metaseiulus occidentalis in hop fields assessed as mortality; format: functional
Neoseiulus fallacis = experiment: Toxicity against Neoseiulus fallacis in hop fields assessed as mortality; format: functional, Garman
Galendromus occidentalis [18] = experiment: Toxicity against Metaseiulus occidentalis adults in bean leaf disk infested with two-spotted spider mites assessed as repellency at 0.1600 g AI/L treated using worst-case laboratory exposure procedure measured after 24 hr (reference value: 3.6%); format: functional
Galendromus occidentalis [19] = experiment: Toxicity against Metaseiulus occidentalis adults in bean leaf disk infested with two-spotted spider mites assessed as average number of eggs laid (fecundity) at 0.1600 g AI/L treated using worst-case laboratory exposure procedure measured after 72 hr (reference value: 2.23/day); format: functional
Galendromus occidentalis [20] = experiment: Toxicity against Metaseiulus occidentalis adults in bean leaf disk infested with two-spotted spider mites assessed as corrected mortality at 0.1600/8 g AI/L treated using worst-case laboratory exposure procedure measured after 72 hr; format: functional
Galendromus occidentalis [21] = experiment: Toxicity against Metaseiulus occidentalis adults in bean leaf disk infested with two-spotted spider mites assessed as corrected mortality at 0.1600/2 g AI/L treated using worst-case laboratory exposure procedure measured after 72 hr; format: functional
Galendromus occidentalis [22] = experiment: Toxicity against Metaseiulus occidentalis adults in bean leaf disk infested with two-spotted spider mites assessed as corrected mortality at 0.1600 g AI/L treated using worst-case laboratory exposure procedure measured after 72 hr; format: functional
Galendromus occidentalis [23] = experiment: Toxicity against Metaseiulus occidentalis adults in bean leaf disk infested with two-spotted spider mites assessed as average number of eggs laid (fecundity) at 0.1600 g AI/L treated using worst-case laboratory exposure procedure measured after 48 hr (reference value: 2.30/day); format: functional
Galendromus occidentalis [24] = experiment: Toxicity against Metaseiulus occidentalis adults in bean leaf disk infested with two-spotted spider mites assessed as average number of eggs laid (fecundity) at 0.1600 g AI/L treated using worst-case laboratory exposure procedure measured after 24 hr (reference value: 2.11/day); format: functional
Galendromus occidentalis [25] = experiment: Toxicity against Metaseiulus occidentalis adults in bean leaf disk infested with two-spotted spider mites assessed as corrected mortality at 0.1600/32 g AI/L treated using worst-case laboratory exposure procedure measured after 72 hr; format: functional
Galendromus occidentalis [26] = experiment: Toxicity against Metaseiulus occidentalis adults in bean leaf disk infested with two-spotted spider mites assessed as corrected mortality at 0.1600/16 g AI/L treated using worst-case laboratory exposure procedure measured after 72 hr; format: functional
Galendromus occidentalis [27] = experiment: Ovicidal activity against Metaseiulus occidentalis eggs in bean leaf disk infested with two-spotted spider mites assessed as corrected cumulative mortality at 240 g/L SC formulation treated using worst-case laboratory exposure procedure measured after 144 hr (reference value: 0.7%); format: functional
Galendromus occidentalis [28] = experiment: Toxicity against Metaseiulus occidentalis adults in bean leaf disk infested with two-spotted spider mites assessed as repellency at 0.3767 g AI/L treated using worst-case laboratory exposure procedure measured after 48 hr (reference value: 13.6%); format: functional
Galendromus occidentalis [29] = experiment: Toxicity against Metaseiulus occidentalis adults in bean leaf disk infested with two-spotted spider mites assessed as repellency at 0.3767 g AI/L treated using worst-case laboratory exposure procedure measured after 24 hr (reference value: 3.6%); format: functional
Galendromus occidentalis [30] = experiment: Toxicity against Metaseiulus occidentalis adults in bean leaf disk infested with two-spotted spider mites assessed as repellency at 0.3767 g AI/L treated using worst-case laboratory exposure procedure measured after 72 hr (reference value: 16.1%); format: functional
Galendromus occidentalis [31] = experiment: Toxicity against Metaseiulus occidentalis adults in bean leaf disk infested with two-spotted spider mites assessed as average number of eggs laid (fecundity) at 0.3767 g AI/L treated using worst-case laboratory exposure procedure measured after 72 hr (reference value: 2.23/day); format: functional
Galendromus occidentalis [32] = experiment: Toxicity against Metaseiulus occidentalis adults in bean leaf disk infested with two-spotted spider mites assessed as corrected mortality at 0.3767 g AI/L treated using worst-case laboratory exposure procedure measured after 72 hr; format: functional
Galendromus occidentalis [33] = experiment: Toxicity against Metaseiulus occidentalis adults in bean leaf disk infested with two-spotted spider mites assessed as average number of eggs laid (fecundity) at 0.3767 g AI/L treated using worst-case laboratory exposure procedure measured after 48 hr (reference value: 2.30/day); format: functional
Galendromus occidentalis [34] = experiment: Toxicity against Metaseiulus occidentalis adults in bean leaf disk infested with two-spotted spider mites assessed as average number of eggs laid (fecundity) at 0.3767 g AI/L treated using worst-case laboratory exposure procedure measured after 24 hr (reference value: 2.11/day); format: functional

Compound `C/C(=N\C#N)N(C)Cc1ccc(Cl)nc1` [ACETAMIPRID] has a Repellency (Galendromus occidentalis [1]) of 50%, a Repellency (Galendromus occidentalis [2]) of 41% and a Repellency (Galendromus occidentalis [3]) of 16%. It also gave an Activity (Galendromus occidentalis [4]) of 0 day⁻¹, a mortality (Galendromus occidentalis [5]) of 63.7% and a mortality (Galendromus occidentalis [6]) of 64.2%. It also gave an Activity (Galendromus occidentalis [7]) of 0.13 day⁻¹, an Activity (Galendromus occidentalis [8]) of 1.3 day⁻¹ and a mortality (Galendromus occidentalis [9]) of 2.4%. For the same compound, the mortality (Galendromus occidentalis [10]) was 42.4%, the mortality (Galendromus occidentalis [11]) was 56.9% and the mortality (Galendromus occidentalis [12]) was 83.1%. It also gave an LC50 (Galendromus occidentalis [13]) of 0.021 gAi/L and a mortality (Galendromus occidentalis [14]) of 2%.
With `O=[N+]([O-])/N=C1\NCCN1Cc1ccc(Cl)nc1` [IMIDACLOPRID] the mortality (Amblyseius andersoni) was 35.6%, the Repellency (Galendromus occidentalis [15]) was 53.8% and the Repellency (Galendromus occidentalis [16]) was 51.9%. The mortality (Galendromus occidentalis [17]) was 100%, the mortality (Neoseiulus fallacis) was 100% and the Repellency (Galendromus occidentalis [18]) was 16%. For the same compound, the Activity (Galendromus occidentalis [19]) was 1.3 day⁻¹, the mortality (Galendromus occidentalis [20]) was 59.4% and the mortality (Galendromus occidentalis [21]) was 84.2%. It also gave a mortality (Galendromus occidentalis [22]) of 97.4%, an Activity (Galendromus occidentalis [23]) of 1.54 day⁻¹ and an Activity (Galendromus occidentalis [24]) of 2.05 day⁻¹. The mortality (Galendromus occidentalis [25]) was 16.8%, the mortality (Galendromus occidentalis [26]) was 34.4% and the LC50 (Galendromus occidentalis [13]) was 0.0156 gAi/L. It also gave a mortality at 240000 µg/mL (stock) (Galendromus occidentalis [27]) of 2.7%.
Work on `COc1cccc(C(=O)NN(C(=O)c2cc(C)cc(C)c2)C(C)(C)C)c1C` [METHOXYFENOZIDE] yielded a Repellency (Galendromus occidentalis [28]) of 5.8%, a Repellency (Galendromus occidentalis [29]) of 3.8% and a Repellency (Galendromus occidentalis [30]) of 9%. It also gave an Activity (Galendromus occidentalis [31]) of 2.38 day⁻¹, a mortality (Galendromus occidentalis [32]) of 1.3% and an Activity (Galendromus occidentalis [33]) of 2.15 day⁻¹. The Activity (Galendromus occidentalis [34]) was 1.93 day⁻¹ and the mortality at 240000 µg/mL (stock) (Galendromus occidentalis [27]) was 3.1%.
